Reference: patent US20080267948A1, “Croos-B Structure Binding Compounds” (priority 2005, published 2008)
“Also recorded” adds a separate entry of the source.

How the values were obtained:
Aβ = target: T1, Aβ (Homo sapiens, UniProt P05067, E693Q); experiment: Binding of Aβ from solution to immobilized small compounds; conditions: Greiner Microlon, coat 100 μg/ml, Aβ 100 μg/ml
T1 construct: Lyophilized human amyloid-β(1-40) with E22Q mutation ‘Dutch type’; purchased Peptide facility, Dutch Cancer Institute, Amsterdam; host or cells: synthetic peptide
Protocol: To test the ability of the twelve selected compounds (see Table 7) to bind to misfolded proteins, […] Greiner Microlon high binding plates, Nunc amino Immobilizer plates and Nunc Maxisorp plates. Compounds were coated in 100 mM NaHCO3 pH 9.6, 50 μl/well, 1 h at room temperature with agitation. As a control, wells were coated with buffer only. After blocking of the plates, wells were overlayed with solutions of 0.1/1/10 μg/ml Hb-AGE or 10/100 μg/ml Aβ, in binding buffer (PBS/0.1% Tween20). After washing, binding of Hb-AGE was assessed by overlaying wells with 1 μg/ml hybridoma antibody 4B5, which binds to glycations(^2), followed by RAMPO. Binding of Aβ was visualized using 500× diluted anti-Aβ antibodies (mouse antibody beta-amyloid Clone 6F/3D #M0872, lot 00003503, DAKOCytomation; β-amyloid (H-43) SC-9129, 200 μg/ml rabbit polyclonal IgG, Santa Cruz Biotechnology) and RAMPO/SWARPO in a 1:1 ratio. Finally, wells were overlayed with OPD/H2O2 solution, and H2SO4, before absorbance readings at 490 nm.

ovalbumin = target: T2, ovalbumin (Gallus gallus, UniProt P01012); experiment: Transmission electron microscopy of ovalbumin heated in the presence of small compounds; design: species or system chicken; conditions: 1 mg/ml ovalbumin heated with 1 mg/ml compound
T2 construct: purchased Sigma A5503
T2 sequence (P01012 1-386): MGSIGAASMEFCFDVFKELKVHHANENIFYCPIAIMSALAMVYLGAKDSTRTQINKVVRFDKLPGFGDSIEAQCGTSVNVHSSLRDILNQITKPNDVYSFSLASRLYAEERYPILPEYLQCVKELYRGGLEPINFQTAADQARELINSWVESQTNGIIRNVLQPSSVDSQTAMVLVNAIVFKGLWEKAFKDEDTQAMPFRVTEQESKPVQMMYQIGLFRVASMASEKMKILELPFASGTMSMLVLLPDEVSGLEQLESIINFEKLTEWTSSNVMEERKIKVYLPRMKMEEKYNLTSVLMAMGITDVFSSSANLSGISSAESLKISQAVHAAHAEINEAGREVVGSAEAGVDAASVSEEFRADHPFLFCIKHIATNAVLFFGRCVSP
Summary of the method: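 Ovalbumin at 1 mg/ml was applied to carbon-coated Formvar copper grids, washed with PBS and water, then stained 2 min in 2% methylcellulose with 0.4% uranyl acetate, pH 4. Grids were dried and imaged by TEM at 80 kV.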

[1] = target: T3, heat-denatured misfolded ovalbumin (DOVA) (Gallus gallus, UniProt P01012); experiment: ELISA binding of tPA to immobilized misfolded ovalbumin after pre-incubation with compounds; design: species or system chicken; conditions: misfolded OVA first overlayed with compound (concentration series), then tPA
T3 construct: purchased Sigma A5503
T3 sequence (P01012 2-386 limits assumed): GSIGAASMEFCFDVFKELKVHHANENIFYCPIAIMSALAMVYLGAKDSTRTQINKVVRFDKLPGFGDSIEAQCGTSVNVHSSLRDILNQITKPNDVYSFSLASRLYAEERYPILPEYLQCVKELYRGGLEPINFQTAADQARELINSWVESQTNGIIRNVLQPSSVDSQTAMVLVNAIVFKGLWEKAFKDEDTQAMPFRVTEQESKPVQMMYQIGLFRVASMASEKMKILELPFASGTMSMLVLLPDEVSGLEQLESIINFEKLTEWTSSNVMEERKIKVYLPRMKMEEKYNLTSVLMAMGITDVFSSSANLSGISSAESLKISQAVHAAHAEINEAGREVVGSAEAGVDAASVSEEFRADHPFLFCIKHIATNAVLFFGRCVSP
Protocol: Compounds were now diluted 10× in PBS/0.1% Tween20 (500 μg/ml compound). […] With this approach a further selection of the compounds was achieved. Now, compounds that at least interact with HB-AGE are selected. With the selection, similar binding assays are performed with misfolded OVA and Aβ. Finally, concentration series of the selected compounds are used in the binding studies.

[2] = information found on the www, search completed Spring 2006; cited from earlier work
[3] = tested on: misfolded proteins (Hb-AGE, Aβ); experiment: Binding of misfolded proteins from solution to immobilized small compounds (overall); conditions: compounds coated on ELISA plates, Hb-AGE or Aβ in solution
Protocol: To test the ability of the twelve selected compounds (see Table 7) to bind to misfolded proteins, the compounds were immobilized at 10/100/1000 μg/ml in the wells of 96-wells Greiner Microlon high binding plates, Nunc amino Immobilizer plates and Nunc Maxisorp plates. Compounds were coated in 100 mM NaHCO3 pH 9.6, 50 μl/well, 1 h at room temperature with agitation. As a control, wells were coated with buffer only. After blocking of the plates, wells were overlayed with solutions of 0.1/1/10 μg/ml Hb-AGE or 10/100 μg/ml Aβ, in binding buffer (PBS/0.1% Tween20). After washing, binding of Hb-AGE was assessed by overlaying wells with 1 μg/ml hybridoma antibody 4B5, which binds to glycations(^2), followed by RAMPO. Binding of Aβ was visualized using 500× diluted anti-Aβ antibodies (mouse antibody beta-amyloid Clone 6F/3D #M0872, lot 00003503, DAKOCytomation; β-amyloid (H-43) SC-9129, 200 μg/ml rabbit polyclonal IgG, Santa Cruz Biotechnology) and RAMPO/SWARPO in a 1:1 ratio. Finally, wells were overlayed with OPD/H2O2 solution, and H2SO4, before absorbance readings at 490 nm.

heat-denatured ovalbumin = target: T4, heat-denatured ovalbumin (Gallus gallus, UniProt P01012); experiment: Thioflavin T fluorescence of ovalbumin and small compounds; design: species or system chicken; conditions: 1 mg/ml compound, 1 mg/ml OVA
T4 construct: purchased Sigma A5503
T4 sequence (P01012 1-386): T2 sequence (P01012 1-386)
Summary of the method: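 Heat-denatured ovalbumin at 1 mg/ml in PBS, alone, with 1% v/v DMSO or with 1 mg/ml compound (also heat-denatured after compound addition), mixed 1:9 with 25 μM ThT in 50 mM glycine pH 9.0. Fluorescence read in duplicate at 435 nm excitation, 485 nm emission.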

tPA/plasminogen = target: T5, tPA/plasminogen (Homo sapiens, UniProt P00750); experiment: tPA/plasminogen activation by OVA heated in the presence of compounds (substrate PNAPEP1751); format: biochemical; conditions: 25 μg/ml OVA, 25 μg/ml compound, […] DMSO
T5 construct: purchased Boehringer Ingelheim Actilyse
T5 sequence (P00750 36-562): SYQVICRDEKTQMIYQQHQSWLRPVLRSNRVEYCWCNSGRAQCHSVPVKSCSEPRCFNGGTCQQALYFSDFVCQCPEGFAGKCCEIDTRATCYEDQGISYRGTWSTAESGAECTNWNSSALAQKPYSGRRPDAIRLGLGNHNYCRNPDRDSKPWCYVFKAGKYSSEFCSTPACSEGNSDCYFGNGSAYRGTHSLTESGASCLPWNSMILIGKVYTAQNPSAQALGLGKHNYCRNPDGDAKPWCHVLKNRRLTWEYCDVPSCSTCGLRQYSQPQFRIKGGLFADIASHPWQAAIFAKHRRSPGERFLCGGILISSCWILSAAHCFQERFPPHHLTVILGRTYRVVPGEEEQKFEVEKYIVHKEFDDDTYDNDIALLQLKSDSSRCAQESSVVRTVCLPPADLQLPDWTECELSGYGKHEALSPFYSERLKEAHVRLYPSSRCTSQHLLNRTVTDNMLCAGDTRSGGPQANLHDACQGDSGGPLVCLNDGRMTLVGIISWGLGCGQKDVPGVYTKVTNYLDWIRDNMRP
Summary of the method: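 Ovalbumin heated alone in PBS/1% DMSO (positive control) or with compounds at 1 mg/ml, then used 40-fold diluted in a tPA/plasminogen activation assay; buffer without OVA as negative control. Chromogenic substrate conversion read at 405 nm, with compound interference at 405 nm checked; signals related to control.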

tPA = tPA (Homo sapiens, UniProt P00750); experiment: Plasminogen activation assay (tPA-mediated conversion of Plg to plasmin); format: biochemical; design: purchased Boehringer-Ingelheim Actilyse; conditions: 100 μg ml^−1 protein or peptide, 400 pM tPA, substrate S-2251
Sequence of tPA (P00750 36-562): as above
Protocol: Plasmin (Plm) activity was assayed as described^4. Peptides and proteins that were tested for their stimulatory ability were used at 100 μg ml^−1, unless stated otherwise. […] Chromogenic substrate S-2251 (Chromogenix, Instrumentation Laboratory SpA, Milano, Italy) was used to measure Pls activity.
Purification of β2-glycoprotein I (β2GPI) was performed according to established methods^15,16. Recombinant human β2GPI was made using insect cells and purified as described^15. Plasma derived β2GPI as used in a factor XII ELISA, the Plg-activation assay and in the anti-phospholipid syndrome antibody ELISA (see below), was purified from fresh human plasma as described^16. […]
Solutions of fibrin peptide FP6, NH2—IDIKIR-COOH (Peptide facility, Dutch Cancer Institute, Amsterdam, the Netherlands) were prepared in various ways. […] Separate samples were prepared similarly and analyzed by electron spray ionization mass spectrometry (ESI-MS) to obtain information on the distribution of the peptide over putatively present oligomers (Dr C. Versluis, Department of Biomolecular Mass Spectrometry, Bijvoet Center for Biomolecular Research, Utrecht University, Utrecht, The Netherlands). […] Micrographs were recorded at 80 kV, at suitable magnifications on a JEM-1200EX electron microscope (JEOL, Japan).

Compound | Signal (a.u.) (Aβ) | appearance of ovalbumin heated in the presence of compound on TEM image (ovalbumin) | influence on tPA binding to immobilized misfolded OVA [1] | Use or activity in vitro/in vivo [2] | capture of misfolded protein from solution by immobilized compound [3] | influence on Thioflavin T fluorescence with misfolded OVA (heat-denatured ovalbumin) | influence on tPA/plasminogen activation by OVA pre-heated in the presence of compound (tPA/plasminogen) | stimulation of tPA-mediated conversion of Plg to plasmin (tPA)
COc1cc2c(C=O)c3c4c(cc(OC)c(OC)c4c2cc1OC)CCN3C [compound 214, dehydroglaucine derivative] | 0.14 | Smaller but more dense aggregates than in Control | Stimulated tPA binding to immobilized misfolded protein | inhibitory effect on lipopolysaccharide (LPS)-induced; also recorded: protection of plants from invasion by micro-organisms; also recorded: antimicrobial activity; also recorded: decrease in the blood pressure after applying intravenously; also recorded: bronchoconstrictor effect; also recorded: inhibitory action on the central nervous system | Capture of misfolded protein from solution | Inhibition of Thioflavin T fluorescence with misfolded OVA | Inhibition of tPA/plasminogen activation by OVA pre-heated | 
H-IDIKIR-OH [FP6, reference compound] |  |  |  |  |  |  |  | activates tPA in the chromogenic plasmin activity assay
